Measurements taken from patent US20060020042A1, “Memantine for the treatment of mild and mild to moderate Alzheimer's disease” (Forest Laboratories, Inc., priority 2004, published 2006).

What was measured:
[1] = test system: outpatients with mild-to-moderate Alzheimer's disease; assay: NPI in randomized, double-blind, placebo-controlled study; type: in vivo, human; conditions: for NPI total Difference (memantine minus placebo, LS mean): Week 24, ITT, 20 mg/day
Method: In the study of the present invention, there were approximately 400 patients enrolled across 42 centers. Evaluation of primary efficacy was achieved by Alzheimer's Disease Assessment Scale-cognitive subscale (ADAS-cog) and the Clinician's Interview-Based Impression of Change including caregiver information (CIBIC-plus). Secondary efficacy was determined using Alzheimer's disease Cooperative Study-Activities of Daily Living (ADCS-ADL) and Neuropsychiatric Inventory (NPI) criteria. The NPI is a validated scale that assesses behavioral disturbances in patients with dementia (Cummings et al., Neurology. 1994; 44(12):2308-14). It provides both a total score (sum of 12 domain scores) as well as scores for each subscales (e.g., delusions, hallucinations, agitation/aggression, depression/dysphoria, anxiety, disinhibition, elation/euphoria, apathy/indifference, irritability/lability, aberrant motor activity). For each subscale, both the frequency and the severity of each behavior is measured. The NPI total score ranges from 0 (higher functioning status) to 144 (lower functioning status). The NPI is based upon responses from the caregiver. The NPI was administered at Baseline and the end of Weeks 12 and 24 (or upon early termination). The study consisted of 1-2 weeks of single-blind placebo treatment followed by 24 weeks of double-blind treatment. Results were evaluated over seven clinical visits; at initial screening, baseline, and the end of weeks 4, 8, 12, 18 and 24. This study was conducted as a fixed-dose study. All patients assigned to the memantine group received an initial dose of 5 mg per day; the dose was titrated in 5 mg weekly increments to a final dose of 20 mg/day (administered as two 5 mg tablets twice a day). Study drug was provided as blister packs containing masked study medication such that placebo and memantine tablets were visually identical, and all patients received four tablets of study medication daily (in combinations of memantine 5 mg tablets and matching placebo tablets). […] Descriptive statistics were calculated by visit. […]

[2] = test system: mild-to-moderate AD subjects; assay: Snodgrass picture naming activation task during PET; type: in vivo, human
Method: Snodgrass Picture Naming Task. […] In the present invention, all patients who were subjected to PET scanning were evaluated during imaging using the Snodgrass picture naming activation task, The use of a task during the FDG uptake was used to image increases in the hippocampus and temporal lobe. This Snodgrass Picture Naming activation task was sensitive to object naming, which is impaired in mild to moderate AD. The Snodgrass picture naming activation task and performance analysis was based, in part, on the speed of identification and articulation of the name that corresponds to a set of 260 pictures (Snodgrass and Vanderwart, J. Experimental Psychology: Human Learning and Memory 1980; 6(2): 174-215). The pictures are black-and-white line drawings executed according to a set of rules that provide consistency of pictorial representation. The pictures were standardized on four variables of central relevance to memory and cognitive processing: […]

CC12CC3CC(C)(C1)CC(N)(C3)C2 [Memantine, 1-amino-3,5-dimethyladamantane]
individual NPI criteria significantly better than in the placebo-treated group ([1]; LOCF, week 24): three | NPI total Difference (memantine minus placebo, LS mean) ([1]; LOCF analysis, p=0.011): −3.5 | NPI total Difference (memantine minus placebo, LS mean) ([1]; OC analysis, p=0.143): −2.1 | difference in Snodgrass performance between the two treatment groups ([2]; memantine vs placebo): no significant difference | Snodgrass picture naming activation task performance ([2]; memantine-treated subjects during PET): better than chance
